Calls of active or inactive are those of the source. How the calls were made is not given here.
How the values were obtained:
[1] = system: Human immunodeficiency virus 1; experiment: Antiviral activity against HIV1; type: functional, organism-based
[2] = Cytotoxicity against human MT4 cells after 96 hrs by MTT method; type: cell-based
Yellow fever virus = experiment: Antiviral activity against YFV in BHK cells assessed as protection from virus-induced cytopathogenicity by MTT method; type: functional, organism-based
[3] = system: Vesicular stomatitis virus; experiment: Antiviral activity against vesicular stomatitis virus; type: functional, organism-based
[4] = system: Bovine viral diarrhea virus 1; experiment: Antiviral activity against BVDV NADL in MDBK cells assessed as protection from virus-induced cytopathogenicity by MTT method; type: functional, organism-based; details: Bovine viral diarrhea virus isolates and strains
Poliovirus 1 = experiment: Antiviral activity against Human poliovirus 1 Sabin; type: functional
[5] = system: Respiratory syncytial virus; experiment: Antiviral activity against RSV A2 in VERO76 cells assessed as reduction of plaque number by MTT method; type: functional, organism-based; details: human respiratory syncytial virus, A2, Vero 76
Reovirus sp. = experiment: Antiviral activity against Reovirus; type: functional, organism-based
Vaccinia virus = experiment: Antiviral activity against vaccinia virus; type: functional, organism-based; details: Orthopoxvirus vaccinia

Compound | Activity [1] | CC50 at 96 h [2] [µM] | EC50 (Yellow fever virus) [µM] | Activity [3] | EC50 [4] [µM] | Activity (Poliovirus 1) | EC50 [5] [µM] | Activity (Reovirus sp.) | Activity (Vaccinia virus)
CC(=O)Oc1ccc2ccc(=O)oc2c1Cc1c(N2CCCCC2)oc2ccc3ccccc3c2c1=O | inactive | > 100 | 77 | inactive | 59 | inactive | 40 | inactive | inactive
O=c1cnn([C@@H]2O[C@H](CO)[C@@H](O)[C@H]2O)c(=O)[nH]1 [6-AZAURIDINE] | inactive | 0.2 | 25 | inactive | > 25 | inactive | 1 | inactive | inactive
O=C(Oc1ccc2ccc(=O)oc2c1CN1CCc2ccccc2C1)c1ccccc1 | inactive | > 100 | > 100 | inactive | > 100 | inactive | 1 | inactive | inactive
CCN(CC)c1oc2cc(OC(C)=O)ccc2c(=O)c1Cc1c(OC(C)=O)ccc2c(C)cc(=O)oc12 | inactive | 44 | > 100 | inactive | > 100 | inactive | 11 | inactive | inactive
CC(=O)c1ccc(N2CCN(Cc3c(O)ccc4ccc(=O)oc34)CC2)cc1 | inactive | 18 | > 100 | inactive | > 100 | inactive | > 100 | inactive | inactive
CCCOc1ccc2ccc(=O)oc2c1CN1CCc2ccccc2C1 | inactive | 11 | > 19 | inactive |  | inactive | > 25 | inactive | inactive
CCCOc1ccc2c(C)cc(=O)oc2c1CN1CCCCC1 | inactive | > 100 | > 100 | inactive | 38 | inactive | > 100 | inactive | inactive
Cc1[nH]c2ccccc2c1Cc1c(OC(=O)CCCC(=O)O)ccc2ccc(=O)oc12 | inactive | 27 | > 100 | inactive | > 67 | inactive | > 92 | inactive | inactive
CCCOc1ccc2c(C)cc(=O)oc2c1CN1CCOCC1 | inactive | > 100 | > 100 | inactive | > 100 | inactive | > 100 | inactive | inactive
O=C(Oc1ccc2ccc(=O)oc2c1CN1CCN(Cc2ccc3c(c2)OCO3)CC1)c1ccccc1 | inactive | 74 | > 100 | inactive | 77 | inactive | 85 | inactive | inactive
C[C@@]1(O)[C@H](O)[C@@H](CO)O[C@H]1n1cnc2c(=O)[nH]c(N)nc21 [2'-B-METHYL-GUANOSINE] | inactive | > 100 | 1 | inactive | 4 | inactive | > 100 | inactive | inactive
CC(=O)Oc1ccc2ccc(=O)oc2c1Cc1c(N(C)C)oc2ccc3ccccc3c2c1=O | inactive | 80 | > 52 | inactive | > 48 | inactive | > 30 | inactive | inactive
CC(=O)Oc1ccc2c(C)cc(=O)oc2c1Cc1c(-c2ccccc2)[nH]c2ccccc12 | inactive | > 100 | > 100 | inactive | > 100 | inactive | > 100 | inactive | inactive
Cc1[nH]c2ccccc2c1Cc1c(OC(=O)CCCC(=O)O)ccc2c(C)cc(=O)oc12 | inactive | 29 | > 64 | inactive | > 69 | inactive | > 100 | inactive | inactive
Cc1cc(=O)oc2c(CN3CCN(C/C=C/c4ccccc4)CC3)c(O)ccc12 | inactive | 28 | > 53 | inactive | > 18 | inactive | > 100 | inactive | inactive
CC(=O)c1ccc(N2CCN(Cc3c(O)ccc4c(C)cc(=O)oc34)CC2)cc1 | inactive | 59 | > 100 | inactive | > 100 | inactive | > 100 | inactive | inactive
CCC(=O)Oc1ccc2c(C)cc(=O)oc2c1Cc1c(C)[nH]c2ccccc12 | inactive | 31 | > 100 | inactive | > 87 | inactive | 45 | inactive | inactive
Cc1cc(=O)oc2c(CN3CCCCC3)c(O)ccc12 | inactive | > 100 | > 100 | inactive | > 100 | inactive | > 100 | inactive | inactive
CC(=O)Oc1ccc2c(C)cc(=O)oc2c1Cc1c(C)[nH]c2ccccc12 | inactive | 41 | > 100 | inactive | > 100 | inactive | 25 | inactive | inactive
Cc1cc(=O)oc2c(CN3CCN(C/C=C/c4ccccc4)CC3)c(OC(=O)c3ccccc3)ccc12 | inactive | 45 | > 100 | inactive | 19 | inactive | > 80 | inactive | inactive
CCC(=O)Oc1ccc2ccc(=O)oc2c1Cc1c(C)[nH]c2ccccc12 | inactive | 80 | > 100 | inactive | > 51 | inactive | > 100 | inactive | inactive

— ChEMBL document CHEMBL1144007, “Activity of Mannich bases of 7-hydroxycoumarin against Flaviviridae” (Bioorg Med Chem, 2008)
